# “And” between values parts separate entries of the source, which are not always exact repeats. Equal entries are not always repeated. “Also recorded” adds a separate entry of the source. Where two headings read alike, the source gives them in different places.
# Experiments:
# M. vaccae IMET-10760 = test: MIC determination; assay type: cell-based; details: iron deficient media
# B. subtilis ATCC-6633 = test: MIC determination; assay type: cell-based; details: iron deficient media
# S. aureus SG511 = test: MIC determination; assay type: cell-based; details: iron deficient media
# A. baumannii ATCC 17961 = test: MIC determination; assay type: cell-based, Acinetobacter baumannii
# Description: (§1) Table 3 that was included in the first Example 4 section provides antibacterial data for the first synthetic sideromycins we prepared and studied. The second Example 4 section elaborated and expanded on that data with inclusion of representative antibacterial data in the text and associated pictures of Petri dish assays. MIC (minimum inhibition concentration) is given in μM and AD (agar diffusion zones of inhibition are given in mm from Kirby-Bauer Petri dish growth inhibition studies).
# P. aeruginosa KW799/wt = test: MIC determination; assay type: cell-based, Pseudomonas aeruginosa; details: for MIC: Pseudomonas aeruginosa, KW799/WT
# Description: as §1
# E. coli DC0 [1] = test: MIC determination; assay type: cell-based; details: for MIC: Escherichia coli
# Description: as §1
# [2] = test system: E. coli DC2 (permeability mutant); test: MIC determination; assay type: cell-based
# Description: as §1
# [3] = test system: P. aeruginosa KW799/61 (permeability mutant); test: microbe, parasite or virus in culture; assay type: cell-based, Pseudomonas aeruginosa
# Description: (§2) MIC (minimum inhibition concentration) is given in μM and AD (agar diffusion zones of inhibition are given in mm from Kirby-Bauer Petri dish growth inhibition studies).
# M. luteus ATCC-10240 = test: MIC determination; assay type: cell-based; details: iron deficient media
# Pa4 = test: MIC determination; assay type: cell-based, Pseudomonas aeruginosa; details: Pseudomonas aeruginosa; Table 5
# Description: as §1
# E. coli DC2 = test: Agar diffusion (Kirby-Bauer) assay; assay type: cell-based; details: Table 5
# Description: as §1
# E. coli DC0 [4] = test: Agar diffusion (Kirby-Bauer) assay; assay type: cell-based; details: Table 5
# Description: as §1
# [5] = test system: Pseudomonas aeruginosa KW799/wt; test: Agar diffusion (Kirby-Bauer) assay; assay type: cell-based; details: wild type Pseudomonas; FIG. 8, 9, 12; listed as YML-1-18
# Description: as §1
# Pa6 = test: MIC determination; assay type: cell-based, Pseudomonas aeruginosa; details: Pseudomonas aeruginosa; Table 5; read-out: MIC
# Description: as §2
# [6] = test system: Pseudomonas aeruginosa 01 (Pa01); test: MIC determination; assay type: cell-based; details: Pseudomonas aeruginosa
# Description: as §1
# [7] = test system: Acinetobacter baumannii ATCC 17961; test: Agar diffusion (Kirby-Bauer) assay, with and without hydrogel; assay type: cell-based; details: Acinetobacter; FIG. 8, 9, 10
# Description: as §1
# We investigated whether the sideromycin absorbed in the gel be able to diffuse out of the gel and into the agar to effect antibacterial growth. As a control, the sideromycin alone, without gel, was added in a separate 9 mm well, as usual.
# The second question was whether the sideromycin continue to be released and be able to effect bacterial growth inhibition over extended periods. Thus, additional identical agar plates were prepared and stored at 4° C. for 24, 48 and 72 hours to allow diffusion of the sideromycin (control and gel forms) into the agar before allowing the bacteria to grow in an incubator. Then after each time period, the Petri dishes were incubated at 37° C. for 20 hours to promote bacteria growth in the agar. […] The study has been extended to as long as 168 hours (one week) with retention of antibiotic effectiveness.
# [8] = test system: Pa-Da-1304 CF patient isolate; test: MIC determination; assay type: cell-based, Pseudomonas aeruginosa; details: Pseudomonas aeruginosa
# Description: as §2
# We obtained a clinical isolate of Pseudomonas from a cystic fibrosis patient.
# Acinetobacter = test: Murine Survival Experiment with Acinetobacter; assay type: in vivo; details: 50 mg/kg IV at +30 min and +4 hr
# Description: In vivo data for murine survival with Acinetobacter is shown in Table 9 below and graphically in FIG. 14. In the experiments, 10^8 Acinetobacter was administered IP at time 0 on Day 1, and antibiotic was administered twice IV at +30 min and +4 hr
# [9] = Animal tolerability study (NOAEL) in healthy mice; assay type: in vivo; details: 24 hour study
# Description: With the easily formulated sideromycin in hand, we profiled sideromycin safety in healthy mice. Thus, sideromycin YML-I-115 was tested in healthy mice to determine its No-observed-adverse-effect level (NOAEL). We dosed the mice with YML-I-115 (the sodium salt) at 1 mg/kg, 20 mg/kg, 50 mg/kg, and 100 mg/kg through IV injection of the compound. […] Higher dosage animal experiments have been scheduled to determine the upper limit of the NOAEL value.
# S. Aureus ISR-002 = test: MIC determination; assay type: cell-based; details: Staphylococcus aureus; Table 2; read-out: in vitro activity (MIC)
# S. Aureus ISR 14-001 = test: MIC determination; assay type: cell-based; details: Staphylococcus aureus; Table 2; read-out: in vitro activity (MIC)
# A. baumannii BAA 1793 = test: Agar diffusion assay; assay type: cell-based, Acinetobacter baumannii; details: M-HII media; 0.5 mM (ciprofloxacin 5 μg/ml), 50 uL per well, 37° C. 20 hrs; P unclear zone
# Description: (§3) Antibiotic activity was determined using agar diffusion assays against representative Gram-negative bacteria, including Pseudomonas aeruginosa (Pa6), and several multidrug resistant forms of Acinetobacter baumannii. Representative results are shown in Table 1 and a corresponding picture of an actual petri dish showing the agar diffusion results (FIG. 4). […]. [table]
# A. baumannii BAA 1710 = test: Agar diffusion assay; assay type: cell-based, Acinetobacter baumannii; details: M-HII media; 0.5 mM (ciprofloxacin 5 μg/ml), 50 uL per well, 37° C. 20 hrs; P unclear zone
# Description: as §3
# A. baumannii BAA 1797 = test: Agar diffusion assay; assay type: cell-based, Acinetobacter baumannii; details: M-HII media; 0.5 mM (ciprofloxacin 5 μg/ml), 50 uL per well, 37° C. 20 hrs; P unclear zone
# Description: as §3
# A. baumannii BAA 1800 = test: Agar diffusion assay; assay type: cell-based, Acinetobacter baumannii; details: M-HII media; 0.5 mM (ciprofloxacin 5 μg/ml), 50 uL per well, 37° C. 20 hrs
# Description: as §3
# A. baumannii ARC 3486 = test: MIC determination; assay type: cell-based; details: Acinetobacter baumannii, ARC3486; Table 2; read-out: in vitro activity (MIC)
# [10] = test system: Burkholderia multivorans AU0100; test: MIC determination; assay type: cell-based; details: Table 2, read-out: in vitro activity (MIC)
# A. baumannii ISR 14-0061 = test: MIC determination; assay type: cell-based; details: Acinetobacter baumannii, ISR140061; Table 2; read-out: in vitro activity (MIC)
# [11] = test system: strains of Pseudomonas and Acinetobacter; test: Antibacterial activity, general statements; assay type: cell-based; details: general statements of the text
# Description: Antibiotic activity was determined using agar diffusion assays against representative Gram-negative bacteria, including Pseudomonas aeruginosa (Pa6), and several multidrug resistant forms of Acinetobacter baumannii. Representative results are shown in Table 1 and a corresponding picture of an actual petri dish showing the agar diffusion results (FIG. 4). […].
# P. aeruginosa Pa6 = test: Agar diffusion assay; assay type: cell-based, Pseudomonas aeruginosa; details: M-HII media; 0.5 mM (ciprofloxacin 5 μg/ml), 50 uL per well, 37° C. 20 hrs; P unclear, V very unclear zone
# Description: as §3
# [12] = iron deficient media, read-out: MIC in Fe(−)MHII Media
structure (smiles),measurement,setting,value
CC(=O)Oc1cccc(C(=O)NCCCCN(CC(=O)NC(C(=O)NC2C(=O)N3C2SC(C)(C)C3C(=O)[O-])c2ccccc2)C(=O)c2cccc(OC(C)=O)c2OC(C)=O)c1OC(C)=O.[Na+] (centres unmarked) [HKI-9924154],MIC in Fe(−)MHII Media,M. vaccae IMET-10760,>10 µg/mL
same,MIC in Fe(−)MHII Media,B. subtilis ATCC-6633,>10 µg/mL
same,MIC in Fe(−)MHII Media,S. aureus SG511,>10 µg/mL
same,MIC in Fe(−)MHII Media,A. baumannii ATCC 17961; iron deficient media,0.313 µg/mL
same,MIC,A. baumannii ATCC 17961; [12],0.34 µM
same,MIC,A. baumannii ATCC 17961; read-out: MIC,0.34 µM
same,MIC in Fe(−)MHII Media,P. aeruginosa KW799/wt; iron deficient media,0.04 to 0.052 µg/mL
same,MIC in Fe(−)MHII Media,E. coli DC0 [1]; iron deficient media,<0.005 µg/mL
same,MIC in Fe(−)MHII Media,[2]; iron deficient media,<0.005 µg/mL
same,MIC in Fe(−)MHII Media,[3]; iron deficient media,0.13 µg/mL
same,MIC in Fe(−)MHII Media,M. luteus ATCC-10240,>10 µg/mL
CC(=O)Oc1cccc(C(=O)NCCCCN(CC(=O)N[C@@H](C(=O)N[C@@H]2C(=O)N3C2SC(C)(C)[C@@H]3C(=O)O)c2ccccc2)C(=O)c2cccc(OC(C)=O)c2OC(C)=O)c1OC(C)=O (some centres unmarked) [YML-I-18],MIC,"M. vaccae IMET-10760; Mycolicibacterium vaccae, IMET10760, read-out: MIC in Fe(−)MHII Media",> 10 µg/mL
same,MIC,"B. subtilis ATCC-6633; Bacillus subtilis, ATCC6633, read-out: MIC in Fe(−)MHII Media",> 10 µg/mL
same,MIC,"S. aureus SG511; Staphylococcus aureus, SG511, read-out: MIC in Fe(−)MHII Media",> 10 µg/mL
same,MIC,"A. baumannii ATCC 17961; Acinetobacter baumannii, ATCC17961, iron deficient media, read-out: MIC in Fe(−)MHII Media",0.313 µg/mL
same,MIC,"A. baumannii ATCC 17961; Acinetobacter baumannii, ATCC17961, text, read-out: MIC",0.156 µg/mL to 0.313 µg/mL and 0.34 µM
same,MIC,"A. baumannii ATCC 17961; iron deficient media, listed as HKI-9924116, read-out: MIC in Fe(−)MHII Media",0.34 µM
same,MIC,"A. baumannii ATCC 17961; iron deficient media, listed as YML-1-18, read-out: MIC in Fe(−)MHII Media",0.156 µM
same,MIC,Pa4,0.03 µM
same,MIC,"P. aeruginosa KW799/wt; Table 5, read-out: MIC",0.0156 to 0.0313 µM
same,MIC,P. aeruginosa KW799/wt; [12],0.0156 µM
same,MIC in Fe(−)MHII Media,"P. aeruginosa KW799/wt; iron deficient media, listed as HKI-9924116",(0.0156 μM
same,increase in antibiotic activity over ampicillin,"P. aeruginosa KW799/wt; several strains of P. aeruginosas (entries 1 and 2, Table 3)",16000 fold
same,AD = agar diffusion inhibition zones,E. coli DC2,(AD = 40) mm
same,AD = agar diffusion inhibition zones,E. coli DC0 [4],(AD = 32) mm
same,zones of inhibition (in words),[5],impressive zones of inhibition; also recorded: potently active
same,MIC,Pa6,> 100 µM
same,MIC,"E. coli DC0 [1]; DC0, iron deficient media, read-out: MIC in Fe(−)MHII Media",< 0.005 µg/mL
same,MIC,"E. coli DC0 [1]; representative strains of E. coli (entries 4-5, Table 3: DC0, DC2), read-out: MIC",< 0.005 µg/mL
same,MIC,"[6]; Table 5, read-out: MIC",0.0156 µM
same,MIC,"[2]; Escherichia coli, read-out: MIC in Fe(−)MHII Media",< 0.005 µg/mL
same,zones of inhibition (in words),[7],impressive zones of inhibition
same,MIC,"[3]; Pseudomonas aeruginosa, read-out: MIC in Fe(−)MHII Media",0.052 µg/mL
same,MIC,[8]; Table 5,0.4 to 0.75 µM
same,MIC,[8]; clinical isolate from a cystic fibrosis patient,0.4 to 0.75 µM
same,MIC,"M. luteus ATCC-10240; Micrococcus luteus, ATCC10240, read-out: MIC in Fe(−)MHII Media",> 10 µg/mL
O=C(CN(CCCCNC(=O)c1cccc(O)c1O)C(=O)c1cccc(O)c1O)NC(C(=O)NC1C(=O)N2C(C(=O)[O-])=C(Cl)CCC12)c1ccccc1.[Na+] (centres unmarked) [YML-I-115],murine survival (surviving mice),"Acinetobacter; D 1, 10^8 Acinetobacter IP",6
same,murine survival (surviving mice),Acinetobacter; D 2,6
same,murine survival (surviving mice),Acinetobacter; D 3,6
same,murine survival (surviving mice),Acinetobacter; D 4,6
same,murine survival (surviving mice),Acinetobacter; D 5,6
same,murine survival (surviving mice),Acinetobacter; D 6,6
same,murine survival (surviving mice),Acinetobacter; D 7,6
same,survival and behavior (in words),"[9]; 1, 20, 50 and 100 mg/kg IV",All the mice survived and none of the mice experienced abnormal behavior
same,No-observed-adverse-effect level (NOAEL),"[9]; healthy mice, IV injection",100 mg/kg
"O=C(O)c1cn(C2CC2)c2cc(N3CCNCC3)c(F)cc2c1=O [ciprofloxacin, reference compound]",MIC,S. Aureus ISR-002,> 5 µM
same,MIC,S. Aureus ISR 14-001,0.2 µM
same,Zone of Growth Inhibition,A. baumannii BAA 1793,0 mm
same,Zone of Growth Inhibition,A. baumannii BAA 1710,0 mm
same,Zone of Growth Inhibition,A. baumannii BAA 1797,0 mm
same,Zone of Growth Inhibition,A. baumannii BAA 1800,0 mm
same,MIC,"A. baumannii ATCC 17961; Acinetobacter baumannii, ATCC17961, Table 2, read-out: in vitro activity (MIC)",0.2 µM
same,MIC,A. baumannii ARC 3486,> 5 µM
same,MIC,[10],> 5 µM
same,MIC,"E. coli DC0 [1]; DC0, Table 2, printed E. coli DCO, read-out: in vitro activity (MIC)",0.2 µM
same,MIC,"[6]; Table 2, read-out: in vitro activity (MIC)",0.2 µM
same,MIC,A. baumannii ISR 14-0061,> 5 µM
same,antibacterial activity (in words),[11],completely inactive
same,Zone of Growth Inhibition,P. aeruginosa Pa6,0 mm
